Results as given in patent US20140024663A1, “ATB(0,+) AMINO ACID TRANSPORTER AS A DRUG TARGET FOR TREATMENT OF ESTROGEN RECEPTOR-POSITIVE BREAST CANCER” (GEORGIA HEALTH SCIENCES UNIVERSITY RESEARCH INSTITUTE, INC., priority 2012, published 2014).

How the values were obtained:
[1] = system: MB231 cells; test: ASNS and CHOP mRNA by RT-PCR as readout for amino acid deprivation; format: cell-based, human; details: SLC6A14-negative MB231, α-MT 2.5 mM, 24, 48 or 72 h
Description: (§1) FIGS. 6A to 6C. Effects of SLC6A14 blockade with α-MT in breast cancer cells. In FIG. 6A, MCF10A (a non-malignant mammary epithelial cell line), MCF7 (an ER-positive breast cancer cell line), and MB231 (an ER-negative breast cancer cell line) cells were treated with or without 2.5 mM α-MT for 24, 48, or 72 h and then used for analysis of asparagine synthetase (ASNS) and CHOP mRNA levels. In FIG. 6B, MCF7, MB231 and MCF10A cells were treated with or without 2.5 mM α-MT for 48 h and then used for immunocytochemical analysis of the constitutively expressed LC-3. In FIG. 6C, MCF7 cells were treated with (“b” and “c”) or without (“a”) α-MT (2.5 mM) for 48 h and then used for electron microscopy. Arrows indicate sequestration of cytoplasm and organelles in pre-autophagosomes and autophagosome, and the asterisk indicates condensed chromatin. N, nucleus.
(§2) RT-PCR. Total RNA was isolated using TRIZOL™ (Invitrogen). 2 μg of RNA was reverse transcribed using the GeneAmp PCR System (Applied Biosystems, Branchburg, N.J.). PCR reaction was performed under optimal conditions specific for each of the primer pairs. GAPDH (glyceraldehyde-3-phosphate dehydrogenase) or HPRT1 (hypoxanthine/guanine phosphoribosyl transferase-1) were used as internal controls. PCR products were size-fractionated on agarose gel, stained with ethidium bromide and imaged using Alpha Imager (Santa Clara, Calif.). […]

[2] = system: MCF10A cells; test: as above; format: cell-based, human; details: SLC6A14-negative MCF10A, α-MT 2.5 mM, 24, 48 or 72 h
Description: as §1, §2

[3] = system: MCF7 cells; test: Cell death by propidium iodide staining and FACS cell cycle analysis; format: cell-based, human; details: 48 h
Description: Fluorescence-activated cell sorting (FACS) was used to monitor cell death. MCF7 cells were treated with or without α-MT, 3-MA, or α-MT plus 3-MA. Control and treated cells were then fixed in 50% ethanol, treated with 0.1% sodium citrate, 1 mg/ml RNase A, and 50 μg/ml propidium iodide, and then subjected to FACS analysis (FACS Caliber, Becton Dickinson).

[4] = system: MB231 cells; test: Xenograft in nude mice, tumor growth; format: in vivo, Balb/c nude mice; details: MB231 (ER-negative), α-MT in drinking water 2 mg/ml
Description: (§3) FIGS. 10A to 10D. In vivo efficacy of α-MT in the treatment of ER-positive breast cancer. ZR75.1 (FIG. 10A), MCF7 (FIG. 10B), and MB-231 (FIG. 10C) cells were injected subcutaneously (sc) into Balb/c nude mice (10×10^6 cells per injection site). For MCF7 cells, slow-releasing estrogen pellets were implanted to support the tumor growth. For each cell line, the control group received water with sucrose and the treatment group received α-MT (2 mg/ml) in water with sucrose. Tumor size was measured periodically. NS, not statistically significant (p>0.05); *, p<0.005; two-tailed unpaired Student's t test. In FIG. 10D, Balb/c nude mice were divided into two groups; the control group received water with sucrose and the treatment group received α-MT (2 mg/ml) in water with sucrose for 2 weeks. Mice were then bled and α-MT in plasma was determined by HPLC. Xenograft in nude mice. Human breast cancer cells (ZR75.1, MCF7, and MB231) were injected s.c. close to the lower mammary gland on the right side of Balb/c nude mice (10×10^6 cells per injection site). Only for MCF7 cells, slow-releasing estrogen pellets were implanted to support the tumor growth. Implantation of estrogen pellets was done as follows. […] Tumor size in control and treatment groups was measured periodically by caliper and […] was calculated using the formula (width^2×length)/2.

[5] = system: ZR75.1 cells; test: Xenograft in nude mice, tumor growth; format: in vivo, Balb/c nude mice; details: ZR75.1 (ER-positive), α-MT in drinking water 2 mg/ml
Description: as §3

[6] = system: MCF7 cells; test: Analysis of autophagy (LC3 localization, electron microscopy, autophagosomal proteolysis, GFP-LC3); format: cell-based, human; details: MCF7, α-MT 2.5 mM, 48 h
Description: as §1
FIGS. 7A and 7B. Induction of autophagy in MCF7 cells by α-MT. […] The concentrations of α-MT and 3-MA, when present, were 2.5 mM and 10 mM. The treatment time was 48 h. The extent of proteolysis was determined by the radioactivity present in the protein-free supernatant. […] In FIG. 7B, MCF7 cells were transfected with an GFP-LC3 expression plasmid, and 24 h later, the cells were treated with or without α-MT (2.5 mM) in the presence or absence of 3-MA (10 mM) for 48 h. At the end of the treatment, cells were fixed, and the percent of cells with punctate localization of the ectopically expressed GFP-LC3 was quantified. “a” represents compared to control; “b” represents compared to treatment with α-MT alone; and “c” represents compared to treatment with […]; *, p<0.001.
Analysis of autophagy. Autophagy was analyzed as described previously (Periyasamy-Thandavan et al., 2010, Autophagy; 6:19-35; and Samaddar et al., 2008, Mol Cancer Ther; 7:2977-2987) by monitoring the localization pattern of constitutively expressed LC3 as well as that of ectopically expressed GFP-LC3. In the case of the constitutively expressed LC3, cells were treated without or with α-MT, and then used for immunocytochemical analysis of LC3 localization pattern. For ectopically expressed LC3, cells were transfected with a GFP-LC3 expression plasmid. Briefly, cells were plated on a coverslip to reach ˜50% confluence and transfection of these cells was done with 1 μg of the plasmid using FuGENE transfection reagent (Roche, Nutley, N.J.). […] At the end of the treatment, cells were fixed with 4% paraformaldehyde and examined by fluorescence microscopy to count the number of cells with punctate GFP-LC3. Autophagosomal proteolysis was quantified as described previously (Periyasamy-Thandavan et al., 2010, Autophagy; 6:19-35). […]

SMILES: CC(N)(Cc1c[nH]c2ccccc12)C(=O)O (racemic) [α-MT, α-methyl-DL-tryptophan]
- levels of asparagine synthetase mRNA and CHOP mRNA [1]: not
- levels of asparagine synthetase mRNA and CHOP mRNA [2]: not
- cell death (propidium iodide, cell cycle analysis) ([3]; MCF7, α-MT 2.5 mM alone): significant cell death
- cell death (propidium iodide, cell cycle analysis) ([3]; MCF7, α-MT 2.5 mM with cotreatment 3-MA 10 mM): further potentiated
- tumor growth in xenograft [4]: did not affect the growth
- tumor growth in xenograft [5]: reduced the growth
- autophagosomal proteolysis of 14C-labeled proteins [6]: increased proteolysis
- autophagy (punctate localization of constitutively expressed LC3, autophagosomes in electron microscopy) [6]: induced autophagy
